Experimental data published in patent US10647959B2, “Cell-friendly inverse opal hydrogels for cell encapsulation, drug and protein delivery, and functional nanoparticle encapsulation” (President and Fellows of Harvard College, priority 2011, dated 2020).

Test system: Mouse mesenchymal stem cells (MSCs)
Conditions: 50 mM EDTA solution, up to 3 h incubation, fluorescent images (FIG. 5a)
Method: Subsequently, the viability of cells was measured with a live/dead cell assay by using calcein AM and ethidium homodimer-1.

O=C(O)CN(CCN(CC(=O)O)CC(=O)O)CC(=O)O [EDTA, ethylenediaminetetraacetic acid]
toxicity of the EDTA solution to the cells: no significant toxicity
